Data: patent US9522124B2, “Methods for treating Alzheimer's disease” (Wisconsin Alumni Research Foundation, priority 2011, dated 2016)

Key:
[1] = tested on: BACE1; experiment: Western blot assessment of BACE1 levels in H4 cell lysates; type: cell-based, human; details: H4 cells, 10 μM, 48 hours
Method: (§1) Western blotting was performed on a 4-12% Bis-Tris SDS-PAGE system (NuPAGE; Invitrogen, Carlsbad, Calif., USA) as described previously (Costantini et al., 2006; Jonas et al., 2008; Jonas et al., 2010; Ko and Puglielli, 2007; Ko and Puglielli, 2009; Pehar et al., 2010). The following antibodies were used in this study: anti-acetylated lysine (monoclonal; cat. no. ab409; Abcam, Cambridge, Mass., USA); anti-BACE1 (polyclonal; cat. no. ab2077; Abcam); anti-Myc (monoclonal; cat. no. sc-40; santa cruz, Santa Cruz, Calif., USA); anti-ATases/NAT8 (polyclonal; cat. no. AP4957c; Abgent, San Diego, Calif., USA); anti-actin (monoclonal; cat. no. A1978; Sigma, St Louis, Mo., USA); anti-C99 (monoclonal; cat. no. M066-3; MBL, Woburn, Mass., USA); anti-acetylated H3 (polyclonal; cat. no. 06-599, Millipore, Billerica, Mass.); anti-acetylated H4 (polyclonal; cat. no. 06-866, Millipore, Billerica, Mass.); anti-αPCNA (polyclonal; cat. no. AP2835b, Abgent, San Diego, Calif., USA).
Samples were imaged with classical chemiluminescence and with the LiCor Odyssey Infrared Imaging System (LI-COR Biosciences, Lincoln, Nebr., USA). For chemiluminescent detection, HRP-conjugated anti-mouse or anti-rabbit secondary antibodies were used at 1:6000 dilution in 3% BSA/TBST (GE Healthcare). Detection was performed with either Lumiglo (KPL) or ECL Plus (GE Healthcare). For infrared imaging, goat anti-rabbit Alexa Fluor 680-conjugated secondary antibodies were used.
To assess their biological effects, we treated human neuroglioma (H4) cells with 10 μM of both compounds. […] This might reflect different kinetics of inhibition as well as different IC50s (see FIG. 2). Alternatively, it might also be explained by different cell-permeability properties. In fact, the cLog P for compound 9 and 19 is 5.03 and 3.19, respectively. The cLog P (or partition coefficient) is an indication of partition properties of a compound between hydrophobic and hydrophilic compartments. Higher values indicate preferential distribution in hydrophobic environments and, as such, increased permeability across biological membranes.

[2] = tested on: Aβ; experiment: ELISA determination of secreted Aβ in conditioned media of H4 cells; type: cell-based, human; details: 10 μM, 48 hours
Method: For Aβ determinations in the conditioned media, H4 cells were plated in 6-well Petri dishes. When 80-90% confluent, cells were washed in PBS and incubated in 1 ml of fresh medium for 48 hr. Secreted Aβ was determined by standard sandwich ELISA as described before (Costantini et al., 2007; Costantini et al., 2006; Jonas et al., 2008; Jonas et al., 2010; Ko and Puglielli, 2009; Pehar et al., 2010). For each sample, the levels of Aβ40, Aβ42, and Aβtotal were quantified as triplicate based upon standard curves run (on every ELISA plate) and then expressed as pmol Aβ/mg of protein. Aβ42 was constantly found to be ˜25% of total Aβ values.

[3] = tested on: ATase1 and ATase2; experiment: In vitro acetyltransferase assay, structure-activity of derivatives of compound 9 and 19 (Tables 3, 4); type: biochemical, human; details: refers to Table 3 / Table 4
Method: (§2) The acetyl:CoA lysine acetyltransferase activity of ATase1 and ATase2 was assayed as described before (Ko and Puglielli, 2009). Briefly, we adapted a commercially available fluorescent kit (cat. no. 10006515, Cayman Chemicals) as follows: as source of the enzymatic activity, we used affinity purified ATase1-myc and ATase2-myc at the final concentration of 300 ng/μl; as donor of the acetyl group, we used acetyl-CoA at the final concentration of 12.5 μM. […] The acetyltransferase assay was performed as recommended by the manufacturer.
(§3) We previously described a fluorescent assay that is able to assess the acetylCoA:lysine acetyltransferase activity of ATase1 and ATase2 in vitro (Ko and Puglielli, 2009). The assay employs affinity purified ATase1 or ATase2 (as enzymes), acetyl-CoA (as donor of the acetyl group) and a recombinant peptide corresponding to the N-terminal tail of the histone protein H3 (as acceptor of the acetyl group). The H3 peptide was preferred to affinity purified BACE1 because it is acetylated in a conformation independent manner ((Ko and Puglielli, 2009) and data not shown) and, therefore, more suitable for large screening approaches. To identify possible ATase1 and ATase2 inhibitors we used the assay to screen a single library of 14,400 small molecules/compounds. The screen identified 186 small molecules/compounds able to inhibit ATase1, ATase2 or both in vitro. […] Each compound was then screened for cytotoxic properties by using multi-plex cytotoxicity assays on a variety of cell lines, including human neuroblastoma and human neuroglioma. […] The above 30 compounds were individually screened on human neuroglioma (H4) cells for their ability to reduce the levels of BACE1 and the generation of Aβ. Two compounds, 9 and 19, produced significant changes and were object of further study.
Next we decided to analyze structure-activity properties of both compounds. In the case of compound 9, we designed 13 different chemical derivatives and assessed IC50s in vitro.

[4] = tested on: ATase1 and ATase2; experiment: Western blot assessment of endogenous ATase1/ATase2 levels in H4 cells; type: cell-based, human; details: 10 μM, 48 hours
Method: FIG. 4. Compound 9 causes degradation of the ATases. (A) H4 cells were treated with the indicated compounds (10 μM) for 48 hours prior to Western blot assessment of BACE1 and ATase1/ATase2 levels in total cell lysates. (B, D and E) Quantification of changes are expressed as percent of control (no treatment) and are the average (n=3)±S.D.*, P<0.05; **, P<0.005; ^#, P<0.0005. (C) ELISA determination of secreted Aβ in the conditioned media of the experiment described in (A). Results are expressed as percent of control (no treatment) and are the average (n=3)±S.D.*, P<0.05; **, P<0.005. (F) CHO cells over-expressing either ATase1 or ATase2 were treated with compound 9 (10 μM) for 48 hours prior to Western blot assessment of ATase1 and ATase2 levels in total cell lysates.
FIG. 13. Compound 9 decreases the levels of both ATase1 and ATase2. (A) H4 cells were treated with the increasing concentrations of compound 9 for 48 hours prior to Western blot assessment of BACE1 and ATase1/ATase2 levels in total cell lysates. (B-D) Quantification of changes are expressed as percent of control (no treatment) and are the average (n=3)±S.D.*, P<0.05; **, P<0.005; ^#, P<0.0005.
as §1, with “AP2835b, Abgent, San Diego, Calif., USA).” left out

[5] = tested on: histone acetyltransferase p300/CBP; experiment: In vitro activity of histone acetyltransferase p300/CBP; type: biochemical; details: data not shown
[6] = tested on: C99; experiment: Western blot assessment of C99 levels in H4 cell lysates; type: cell-based, human; details: H4 cells, 48 hours
Method: FIG. 7. Compound 9 and 19 decrease levels and activity of BACE1. H4 cells were treated with either compound 9 or 19 for 48 hours prior to Western blot assessment of BACE1 and C99 levels in cell lysates. C99 is the immediate product of BACE1-mediated cleavage of APP.
as §1

[7] = tested on: cytosolic and nuclear proteins, histone proteins H3 and H4; experiment: Lysine acetylation profile of cytosolic and nuclear proteins in H4 cells; type: cell-based, human; details: 48 hours
Method: FIG. 8. […] (A and B) H4 cells were treated with either compound 9 or 19 for 48 hours prior to Western blot assessment of the acetylation profile of cytosolic (A) and nuclear (B) proteins. (C) The nuclear fraction used in (B) was also used to assess the lysine acetylation profile of the histone proteins H3 and H4.
as §1
Cytosolic and nuclear extracts were prepared as described before (Ko and Puglielli, 2007). For cytosolic extracts, cells were homogenized in homogenization buffer containing 25 mM Tris-HCl, pH 7.4, 0.5 mM EDTA, 0.5 mM EGTA, and a protease inhibitor mixture. The homogenates were centrifuged at 14,000×g for 15 min, and supernatants were collected as cytosolic proteins.
For nuclear extracts cells were scraped into ice-cold phosphate-buffered saline and collected by centrifugation. The cell pellets were suspended in 3 volumes of lysis buffer (20 mM Hepes, pH 7.9, 10 mM KCl, 1 mM EDTA, pH 8.0, 0.2% Nonidet P-40, 10% glycerol, and a protease inhibitor mixture) followed by incubation on ice for 10 min. Cell suspensions were gently pipetted up and down; the lysates were then centrifuged at 14,000×g for 5 min at 4° C. to obtain nuclear pellets. Nuclear pellets were washed twice with cell lysis buffer (lacking Nonidet P-40 and protease inhibitor mixture) and then resuspended in 2 volumes of nuclear extract buffer (20 mM Hepes, pH 7.9, 10 mM KCl, 1 mM EDTA, pH 8.0, 420 mM NaCl, 20% glycerol, and a protease inhibitor mixture). The nuclei were extracted by incubation at 4° C. for 30 min with gentle agitation followed by centrifugation at 14,000×g at 4° C. for 5 min; the resultant supernatant fraction was used as a nuclear extract.

[8] = molecular target: T1, ATase1 (Homo sapiens, UniProt Q9UHF3); experiment: AcetylCoA:lysine acetyltransferase assay (fluorescent, affinity purified ATase1-myc); type: biochemical
T1 construct: myc (C); made in house
T1 sequence (Q9UHF3 1-227): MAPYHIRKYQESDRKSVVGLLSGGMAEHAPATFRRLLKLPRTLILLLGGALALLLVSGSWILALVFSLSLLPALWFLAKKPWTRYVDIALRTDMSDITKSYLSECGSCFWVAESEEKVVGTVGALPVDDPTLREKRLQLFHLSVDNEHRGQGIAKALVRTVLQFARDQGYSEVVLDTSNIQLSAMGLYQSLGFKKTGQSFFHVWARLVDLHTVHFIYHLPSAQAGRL
Method: as §2
(§4) For kinetic analysis of ATase1 and ATase2 inhibition, the assays were performed in the presence of the indicated concentrations of compound 9, 19 and 9.I. The concentration of acetyl-CoA was varied from […]. Values were plotted as a Lineweaver-Burk plot using Graphpad Prism software.
as §3

[9] = molecular target: T2, ATase2 (Homo sapiens, UniProt Q9UHE5); experiment: AcetylCoA:lysine acetyltransferase assay (fluorescent, affinity purified ATase2-myc); type: biochemical
T2 construct: myc (C); made in house
T2 sequence (Q9UHE5 1-227): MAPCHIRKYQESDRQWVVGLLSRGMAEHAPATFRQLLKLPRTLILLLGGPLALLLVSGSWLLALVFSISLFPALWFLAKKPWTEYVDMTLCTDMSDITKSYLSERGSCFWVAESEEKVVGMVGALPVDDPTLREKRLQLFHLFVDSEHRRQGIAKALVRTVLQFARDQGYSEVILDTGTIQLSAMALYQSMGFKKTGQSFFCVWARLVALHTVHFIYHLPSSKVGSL
Method: as §2, §4, §3

[10] = Lineweaver-Burk plot, acetyl-CoA varied

| Structure (SMILES) | levels of BACE1 [1] | levels of Aβ in the conditioned media / generation of Aβ [2] | inhibitory activity of derivative relative to parent compound (in words) [3] | other results |
| --- | --- | --- | --- | --- |
| N=c1c(Cl)c2oc3cc(N)ccc3nc-2c2ccccc12 [Compound 9.A] | only 9.I retained significant ability | only 9.I retained significant ability | – | – |
| CCN(CC)c1ccc2nc3c4ccccc4c(=O)cc-3oc2c1 [Compound 9.B] | only 9.I retained significant ability | only 9.I retained significant ability | – | – |
| Oc1c(Cl)c2nc3ccccc3nc2c2ccccc12 [Compound 9.C] | only 9.I retained significant ability | only 9.I retained significant ability | highest activity | – |
| O=C1C(Cl)=C2Nc3ccccc3OC2(O)c2ccccc21 (stereo not drawn) [Compound 9.E] | only 9.I retained significant ability | only 9.I retained significant ability | decreased activity | – |
| O=c1ccc2nc3ccc(O)cc3oc-2c1 [Compound 9.I] | retained significant ability | retained significant ability | retained inhibitory properties | endogenous levels of ATase1 and ATase2 [4]: significantly down-regulate |
| CCOc1ccccc1NC1=C(Cl)C(=O)c2ccccc2C1=O [Compound 19] | significant reduction | decreased levels of Aβ | – | inhibition of in vitro activity of p300/CBP [5]: neither compound inhibited; cellular levels of C99 [6]: decreased cellular levels of C99; acetylation profile of cytosolic and nuclear proteins [7]: Neither compound 9 nor compound 19 produced significant changes; acetylation profile of the histone protein H3 and H4 ([7]; nuclear fraction): slight reduction; IC50 [8]: ~13.3 µM; kinetics of inhibition for acetyl-CoA, ATase1 [8, 10]: non-competitive inhibition; IC50 [9]: 18.2 µM; kinetics of inhibition for acetyl-CoA, ATase2 [9, 10]: non-competitive inhibition |
